For data set [1] the following is noted: [^18F]-FDG study; cited from earlier work.
The conditions of data set [2]: mice, other studies; cited from earlier work.
A short description of data set [3]: Dynamic PET of ^51Mn^2+ rapid IV bolus under isoflurane. The data set is classed as in vivo, ICR mice. How it is done: (§1) All animal studies were conducted under a protocol approved by the University of Wisconsin Institutional Animal Care and Use Committee. Non-fasted healthy ICR mice (Envigo, Indianapolis, Ind.) were divided into two groups. Mice in the first group (n=2) were anaesthetized by isoflurane (4% induction, 1% maintenance), tail-vein catheters were affixed, and mice were placed on the microPET/CT bed in a prone position (Inveon, Siemens Preclinical Solutions, Knoxville, Tenn.). Dynamic PET acquisition was started and ^51Mn^2+ was administered in a rapid bolus (3.3 MBq, 200 μl, 10% 0.01 M NaOAc/90% PBS) through the tail-vein catheter. Sixty minutes of dynamic PET data were acquired following ^51Mn^2+ administration. Due to the impact of volatile anesthetics on voltage-dependent calcium channel (VDCC) activation, the second group (n=3) received an intravenous (I.V.) bolus of ^51Mn^2+ (1.6 MBq, 200 μL, 10% 0.01 M NaOAc/90% PBS) while awake. 60 minutes post-injection mice were anaesthetized by isoflurane and a 10 minute static PET scan acquired. Following imaging, mice were immediately sacrificed by CO2 asphyxiation, and organs were extracted. Ex vivo biodistribution measurements were performed by gamma counting (Wizard 2480, PerkinElmer, Waltham, Mass.).
Dynamic PET data were binned into […] (12×5 s, 6×10 s, 6×30 s, 6×150 s, 6×300 s) and frames were reconstructed using non-scatter-corrected 3D ordered-subset expectation maximization followed by maximum a posteriori reconstruction (OSEM3D/MAP). Static PET data were reconstructed into a single frame by OSEM3D/MAP.

The nature of data set [4]: Ex vivo ^51Mn biodistribution by gamma counting. The data set is classed as in vivo, ICR mice. Conditions: awake I.V. bolus, gamma counting after 1 h PET. How it is done:
as §1

A short description of data set [5]: OLINDA dosimetry calculations for Mn-51 and daughter Cr-51. Further details: species or system human. Conditions: OLINDA input. How it is done:
Due to the rapid blood clearance of Mn^2+, OLINDA (Organ Level INternal Dose Assessment) dosimetry calculations were performed assuming instant compartment localization with organ activity fractions equal to those measured by ex vivo biodistribution herein. Based on the previously measured lengthy organ residence times of Mn^2+, it was also assumed that the effective organ clearance half-life (Ter) was equal to the radioactive half-life of Mn-51 (t1/2: 45.6 min). It was also assumed that Mn-51 injections were 100% radionuclidically pure. In regards to the daughter isotope, Cr-51 (t1/2: 27.7 d), it was assumed that the activity remained in same organ compartments as the parent Mn-51 biodistribution without biological clearance. Standard radiation weighting factors were used (γ=1, β=1). Based on these assumptions, effective dose (ED) and effective dose equivalent (EDE) (units of mSv/MBq) were calculated for a standard adult male and female.

Data set [6] is described as follows: Static PET of ^51Mn^2+ injected in awake mice. The data set is classed as in vivo, ICR mice. As to conditions: I.V. bolus non-anaesthetized, n=3, PET 60 minutes post-injection. How it is done: as §1, with “Mass.). […]” for “Mass.).”

Turning to `OC[C@H]1OC(O)[C@H]([18F])[C@@H](O)[C@@H]1O` (some centres unmarked) [[^18F]-FDG], the “average dose for a study” value in data set [1] is reported as 14.1 mSv.

On to `[63Zn+2]` [^63Zn^2+], for which the pancreatic uptake entry in data set [2] is recorded as “significant”.

Regarding ^51MnCl2 [Mn-51], the “kidney uptake, anaesthetized dynamic PET subjects” value in data set [3] (I.V. bolus under isoflurane, n=2) is reported as 13.7±2.6 SUV. In addition, the “duration of initial distribution” value in data set [3] (rapid IV bolus, dynamic PET) is recorded as less than 1 min. Also, the “heart blood-pool clearance half-life” value in data set [3] (rapid IV bolus, heart TAC 0.375 to 3.25 minutes post-injection) stood at 7.7 ± 0.7 s. In data set [4], the “Mn-51 uptake in heart, ex vivo biodistribution” value is given as 5.6±1.8 SUV; the “Mn-51 uptake in kidneys, ex vivo biodistribution” value came out at 9.2±0.7 SUV; the “Mn-51 uptake in pancreas, ex vivo biodistribution” value is 7.0±1.3 SUV. Further, in data set [5] (Total Body), the “Number of disintigrations, Total Body” value was 8.70E−01 MBq-h/MBq. The “Number of disintigrations, Adrenals” value in data set [5] (source organ Adrenals) is reported as 0.00E+00 MBq-h/MBq. The “Number of disintigrations, Brain” value in data set [5] (source organ Brain) is reported as 4.43E−03 MBq-h/MBq. Moreover, the “Number of disintigrations, Breasts” value in data set [5] (source organ Breasts) is 0.00E+00 MBq-h/MBq. For the same compound, the “Number of disintigrations, Cortical Bone” value in data set [5] (source organ Cortical Bone) is 8.40E−04 MBq-h/MBq. Besides, the “Number of disintigrations, Gallbladder Contents” value in data set [5] (source organ Gallbladder Contents) is recorded as 0.00E+00 MBq-h/MBq. Also, the “Number of disintigrations, Heart Contents” value in data set [5] (source organ Heart Contents) was 0.00E+00 MBq-h/MBq. Besides, in data set [5] (source organ Heart Wall), the “Number of disintigrations, Heart Wall” value is 2.37E−02 MBq-h/MBq. In addition, the “Number of disintigrations, Kidneys” value in data set [5] (source organ Kidneys) is on record as 6.91E−02 MBq-h/MBq. Further, the “Number of disintigrations, LLI” value in data set [5] (source organ LLI) is given as 0.00E+00 MBq-h/MBq. In addition, in data set [5] (source organ Liver), the “Number of disintigrations, Liver” value was 6.30E−02 MBq-h/MBq. Besides, the “Number of disintigrations, Lungs” value in data set [5] (source organ Lungs) was 1.68E−02 MBq-h/MBq. For the same compound, in data set [5] (source organ Muscle), the “Number of disintigrations, Muscle” value is recorded as 2.18E−03 MBq-h/MBq. The “Number of disintigrations, Ovaries” value in data set [5] (source organ Ovaries) was 0.00E+00 MBq-h/MBq. In data set [5] (source organ Pancreas), the “Number of disintigrations, Pancreas” value is 4.11E−02 MBq-h/MBq. Also, the “Number of disintigrations, Red Marrow” value in data set [5] (source organ Red Marrow) is reported as 0.00E+00 MBq-h/MBq. Besides, in data set [5] (source organ Small Intestine), the “Number of disintigrations, Small Intestine” value is reported as 0.00E+00 MBq-h/MBq. In addition, the “Number of disintigrations, Spleen” value in data set [5] (source organ Spleen) was 9.16E−03 MBq-h/MBq. The “Number of disintigrations, Stomach” value in data set [5] (source organ Stomach) is 0.00E+00 MBq-h/MBq. In data set [5] (source organ Testes), the “Number of disintigrations, Testes” value is on record as 0.00E+00 MBq-h/MBq. For the same compound, the “Number of disintigrations, Thymus” value in data set [5] (source organ Thymus) is 0.00E+00 MBq-h/MBq. Besides, the “Number of disintigrations, Thyroid” value in data set [5] (source organ Thyroid) was 0.00E+00 MBq-h/MBq. Moreover, the “Number of disintigrations, Trabecular Bone” value in data set [5] (source organ Trabecular Bone) is given as 0.00E+00 MBq-h/MBq. Moreover, in data set [5] (source organ ULI), the “Number of disintigrations, ULI” value is recorded as 6.42E−03 MBq-h/MBq. Besides, the “Number of disintigrations, Urinary Bladder Contents” value in data set [5] (source organ Urinary Bladder Contents) is given as 0.00E+00 MBq-h/MBq. Moreover, the “Number of disintigrations, Uterus/Uterine Wall” value in data set [5] (source organ Uterus/Uterine Wall) is reported as 0.00E+00 MBq-h/MBq. Moreover, the “kidney uptake, static PET subjects” value in data set [6] was 7.7±1.1 SUV.

The values are drawn from patent US20180271470A1, “METHODS FOR QUANTIFYING PANCREATIC BETA CELL FUNCTION AND MASS PROPERTIES WITH RADIOMANGANESE POSITRON EMISSION TOMOGRAPHY” (Wisconsin Alumni Research Foundation, priority 2017, published 2018).
